# Assay results published in ChEMBL document CHEMBL4041477, “Design, synthesis and biological evaluation of novel 2,3-dihydroquinazolin- 4(1H)-one derivatives as potential fXa inhibitors” (Eur J Med Chem, 2017).
# Columns and labels:
# Coagulation factor X = Coagulation factor X (Homo sapiens, UniProt P00742); assay: Inhibition of human factor 10a using substrate S-2765 preincubated for 30 mins followed by substrate addition measured after 20 mins by micro plate reader method
# Plasma [1] = assay: Anticoagulant activity in rabbit plasma assessed as increase in activated partial thromboplastin time after 10 mins by coagulometer; format: functional, Oryctolagus cuniculus
# Plasma [2] = assay: Anticoagulant activity in rabbit plasma assessed as increase in prothrombin time after 10 mins by coagulometer; format: functional, Oryctolagus cuniculus
# Rattus norvegicus [3] = assay: Antithrombotic activity in rat model of arteriovenous shunt assessed as reduction in thrombus weight at 10 mg/kg, po administered 60 mins prior to shunt opening; format: functional, organism-based
# Rattus norvegicus [4] = assay: Toxicity in po dosed rat assessed as increase in tail bleeding time administered 60 mins prior to tail transection measured over 30 mins; format: organism-based; settings: in vivo, 0.5 h
# Prothrombin = Prothrombin (Homo sapiens, UniProt P00734); assay: Inhibition of human thrombin using substrate S-2238 preincubated for 30 mins followed by substrate addition measured after 20 mins by micro plate reader method
# Rattus norvegicus [5] = assay: Antithrombotic activity in po dosed rat model of arteriovenous shunt assessed as reduction in thrombus weight administered 60 mins prior to shunt opening; format: functional, organism-based
# Chain of Coagulation factor X (P00742 41-179 limits assumed): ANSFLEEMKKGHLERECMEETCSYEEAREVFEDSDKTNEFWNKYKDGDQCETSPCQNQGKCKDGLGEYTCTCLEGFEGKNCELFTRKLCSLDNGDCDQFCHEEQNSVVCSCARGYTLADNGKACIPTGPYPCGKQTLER
# Chain of Coagulation factor X (P00742 235-488 limits assumed): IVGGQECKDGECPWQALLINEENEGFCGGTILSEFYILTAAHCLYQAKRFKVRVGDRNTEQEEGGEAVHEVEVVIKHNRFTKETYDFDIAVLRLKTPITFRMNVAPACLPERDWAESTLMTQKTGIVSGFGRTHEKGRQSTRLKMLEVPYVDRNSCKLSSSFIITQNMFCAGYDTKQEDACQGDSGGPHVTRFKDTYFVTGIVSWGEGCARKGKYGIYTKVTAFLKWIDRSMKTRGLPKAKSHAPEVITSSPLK
SMILES,IC50 (Coagulation factor X) [nM],other results
COc1ccc(CC(=O)N2CN(c3ccc(N4CCOCC4=O)cc3)C(=O)c3cc(OC)ccc32)cc1,717,–
COc1cccc(C(=O)N2CN(c3ccc(N4CCCCC4=O)cc3)C(=O)c3cc(OC)ccc32)c1,354000,–
COc1ccc2c(c1)C(=O)N(c1ccc(N3CCCCC3=O)cc1)CN2C(=O)Cc1ccc(Cl)cc1,127,–
COc1ccc2c(c1)C(=O)N(c1ccc(N3CCCCC3=O)cc1)CN2C(=O)c1cccc(Cl)c1,243000,–
COc1ccc2c(c1)C(=O)N(c1ccc(N3CCCCC3=O)cc1)CN2C(=O)c1ccc(Cl)s1,179000,–
COc1ccc2c(c1)C(=O)N(c1ccc(N3CCOCC3=O)cc1)CN2C(=O)CCc1ccc(Cl)cc1,2210,–
COc1ccc2c(c1)C(=O)N(c1ccc(N3CCCCC3=O)cc1)CN2C(=O)Cc1ccccc1Cl,1340,–
COc1ccc2c(c1)C(=O)N(c1ccc(N3CCOCC3=O)cc1)CN2C(=O)Cc1ccc(Cl)cc1Cl,498,–
COc1ccc(NC(=O)c2ccc(C(=N)N(C)C)cc2)c(C(=O)Nc2ccc(Cl)cn2)c1 [BETRIXABAN],–,2aPTT (Plasma [1]): 1.1 µM; 2PT (Plasma [2]): 2.4 µM; Activity (Rattus norvegicus [3]): Dose-dependent effect; Activity (Rattus norvegicus [4]): Dose-dependent effect
COc1ccc2c(c1)C(=O)N(c1ccc(N3CCCCC3=O)cc1)CN2C(=O)Cc1ccccc1,4060,–
COc1ccc2c(c1)C(=O)N(c1ccc(N3CCCCC3=O)cc1)CN2C(=O)c1ccccc1,546000,–
COc1ccc2c(c1)C(=O)N(c1ccc(N3CCCCC3=O)cc1)CN2C(=O)c1ccc(Cl)cc1,52000,–
COc1ccc2c(c1)C(=O)N(c1ccc(N3CCOCC3=O)cc1)CN2C(=O)Cc1ccc(Cl)c(Cl)c1,345,–

# More lines, in order of falling IC50 (Coagulation factor X), values ahead:
IC50 (Coagulation factor X) [nM],SMILES,other results
113000,COc1ccc(C(=O)N2CN(c3ccc(N4CCCCC4=O)cc3)C(=O)c3cc(OC)ccc32)cc1,–
1410,COc1ccc2c(c1)C(=O)N(c1ccc(N3CCOCC3=O)cc1)CN2C(=O)c1ccc(CCl)cc1,–
1270,COc1ccc(CC(=O)N2CN(c3ccc(N4CCCCC4=O)cc3)C(=O)c3cc(OC)ccc32)c(OC)c1,–
887,COc1ccc(CC(=O)N2CN(c3ccc(N4CCCCC4=O)cc3)C(=O)c3cc(OC)ccc32)cc1,–
532,COc1ccc2c(c1)C(=O)N(c1ccc(N3CCCCC3=O)cc1)CN2C(=O)Cc1cccc(Cl)c1,–
234,COc1ccc2c(c1)C(=O)N(c1ccc(N3CCCCC3=O)cc1)CN2C(=O)Cc1ccc(NC(C)=O)cc1,–
165,COc1ccc2c(c1)C(=O)N(c1ccc(-n3ccccc3=O)cc1)CN2C(=O)Cc1ccc(Cl)cc1,–
157,COc1ccc2c(c1)C(=O)N(c1ccc(N3CCOCC3=O)cc1)CN2C(=O)Cc1ccc(Cl)cn1,–
42,COc1ccc2c(c1)C(=O)N(c1ccc(N3CCOCC3=O)cc1)CN2C(=O)Cc1ccc(Cl)cc1,2aPTT (Plasma [1]): 16.1 µM; IC50 (Prothrombin): 81000 nM; 2PT (Plasma [2]): 11.6 µM
21,COc1ccc2c(c1)C(=O)N(c1ccc(N3CCOCC3=O)cc1)CN2C(=O)Cc1ccc(Cl)s1,2aPTT (Plasma [1]): 0.6 µM; IC50 (Prothrombin): 67000 nM; 2PT (Plasma [2]): 1.2 µM; Activity (Rattus norvegicus [5]): Dose-dependent effect; Activity (Rattus norvegicus [4]): Dose-dependent effect
